Data on 42 molecules can be found in patent US20240034729A9, “HETEROCYCLIC COMPOUND, INTERMEDIATE, PREPARATION METHOD THEREFOR AND APPLICATION THEREOF” (WUHAN LL SCIENCE AND TECHNOLOGY DEVELOPMENT CO., LTD., priority 2018, published 2024).

This assay addresses hP2X3 (human purinergic P2X receptor subtype 3) (Homo sapiens (Human), UniProt P56373). As to the kind of experiment: FLIPR calcium assay, hP2X3 expressed in HEK293 cells. Type of assay: cell-based. The note with it: read-out: P2X3 IC50.
Setting [1] is: HEK293 cells expressing hP2X3, agonist BZ-ATP 2.5 μM, class symbols.

pIC50: −log10 of the molar value. Like-named read-outs stand apart in the source and are kept apart here.

Chain of hP2X3 (human purinergic P2X receptor subtype 3) (P56373 whole entry): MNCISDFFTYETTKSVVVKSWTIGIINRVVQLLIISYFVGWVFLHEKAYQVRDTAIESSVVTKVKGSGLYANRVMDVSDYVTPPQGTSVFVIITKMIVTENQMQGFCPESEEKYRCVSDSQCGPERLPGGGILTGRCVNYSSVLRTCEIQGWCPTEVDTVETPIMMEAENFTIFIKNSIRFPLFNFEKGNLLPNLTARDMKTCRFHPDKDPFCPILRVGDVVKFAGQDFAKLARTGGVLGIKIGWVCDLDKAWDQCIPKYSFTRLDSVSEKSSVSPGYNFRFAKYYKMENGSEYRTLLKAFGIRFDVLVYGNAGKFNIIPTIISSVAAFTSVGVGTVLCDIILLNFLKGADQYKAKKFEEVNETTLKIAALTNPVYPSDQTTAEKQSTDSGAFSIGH

In general, pIC50 refers to the IC50 on a negative log10 scale, so that one unit is a factor of ten. For `CNC(c1cc(F)c(-c2nc3cc(C)ccn3c2C[C@H]2CN(C(=O)OC)CCO2)c(F)c1)C(F)(F)F` (stereo partly drawn) [Compound 68, methyl (S)-2-((2-(2,6-difluoro-4-(2,2,2-trifluoro-1-(methylamino)ethyl)phenyl)-7-methylimidazo[1,2-a]pyridin-3-yl)methyl)morpholine-4-carboxylate], the negative-log IC50 (pIC50) is 7.30 to 8.00. With `COC(=O)N1CCO[C@@H](Cc2c(-c3c(F)cc(NC(=O)C4CCC(C(=O)O)CC4)cc3F)nc3cc(C)ccn23)C1` (stereo partly drawn) [Compound 82], the negative logarithm of the IC50 (pIC50) is 7.30 to 8.00. For the molecule `COC(=O)N1CCO[C@@H](Cc2c(-c3c(F)cc(-n4cc(O)cn4)cc3F)nc3cc(C)ccn23)C1` [Compound 128, methyl (S)-2-((2-(2,6-difluoro-4-(4-hydroxy-1H-pyrazol-1-yl)phenyl)-7-methylimidazo[1,2-a]pyridin-3-yl)methyl)morpholine-4-carboxylate], the pIC50 under setting [1] is 5.30 to 6.70. With `COC(=O)N1CCO[C@@H](Cc2c(-c3c(F)cc(NC(=O)C4CCC(=O)CC4)cc3F)nc3cc(C)ccn23)C1` [Compound 83], the pIC50 was 6.70 to 7.30.

In the case of `COC(=O)N1CCO[C@@H](Cc2c(-c3c(F)cc(-n4cc(N)cn4)cc3F)nc3cc(C)ccn23)C1` [Compound 127, methyl (S)-2-((2-(4-(4-amino-1H-pyrazol-1-yl)-2,6-difluorophenyl)-7-methylimidazo[1,2-a]pyridin-3-yl)methyl)morpholine-4-carboxylate], the pIC50 was above 8.00. With `CNC(=O)Cc1cc(F)c(-c2nc3cc(C)ccn3c2C[C@H]2CN(C(=O)OC)CCO2)c(F)c1` [Compound 64, methyl (S)-2-((2-(4-(2-(methylamino)-2-oxoethyl)-2,6-difluorophenyl)-7-methylimidazo[1,2-a]pyridin-3-yl)methyl) morpholine-4-carboxylate], the negative logarithm of the IC50 (pIC50) is 6.70 to 7.30. In the case of `COC(=O)N1CCO[C@@H](Cc2c(-c3c(F)cc(-n4cnc(C(F)(F)F)c4)cc3F)nc3cc(C)ccn23)C1` [Compound 109, methyl (S)-2-((2-(2,6-difluoro-4-(4-trifluoromethyl-1H-imidazol-1-yl)phenyl)-7-methylimidazo[1,2-a]pyridin-3-yl)methyl)morpholine-4-carboxylate], the negative logarithm of the IC50 (pIC50) was 6.70 to 7.30. `COC(=O)N1CCO[C@@H](Cc2c(-c3c(F)cc(NC(=O)CC4(C#N)CC4)cc3F)nc3cc(C)ccn23)C1` [Compound 96]: the pIC50 was 7.30 to 8.00. Regarding `COC(=O)N1CCO[C@@H](Cc2c(-c3c(F)cc(-n4ccc(C#N)n4)cc3F)nc3cc(C)ccn23)C1` [Compound 124], the pIC50 is above 8.00. For the molecule `CNC(=O)c1cc(F)c(-c2nc3cc(C)ccn3c2C[C@H]2CN(C(=O)OC)CCN2)c(F)c1` [Compound 46], under setting [1], the pIC50 was 5.30 to 6.70.

For `COC(=O)N1CCO[C@@H](Cc2c(-c3c(F)cc(S(N)(=O)=O)cc3F)nc3cc(Cl)c(F)cn23)C1` [Compound 183, methyl (S)-2-((7-chloro-2-(2,6-difluoro-4-sulfamoylphenyl)-6-fluoroimidazo[1,2-a]pyridin-3-yl)methyl)morpholine-4-carboxylate], the pIC50 was 8.26. Still for that read-out and setting: then `COC(=O)N1CCO[C@@H](Cc2c(-c3c(F)cc(S(N)(=O)=O)cc3Cl)nc3cc(Cl)ccn23)C1` [Compound 179, methyl (S)-2-((7-chloro-2-(2-chloro-6-fluoro-4-sulfamoylphenyl)imidazo[1,2-a]pyridin-3-yl)methyl)morpholine-4-carboxylate], with 9.40. For the molecule `CNC1(c2cc(F)c(-c3nc4cc(C)ccn4c3C[C@H]3CN(C(=O)OC)CCO3)c(F)c2)COC1` [Compound 69, methyl (S)-2-((2-(2,6-difluoro-4-(3-(methylamino)oxetan-3-yl)phenyl)-7-methylimidazo[1,2-a]pyridin-3-yl)methyl) morpholine-4-carboxylate], the pIC50 was 7.30 to 8.00. For the molecule `CNC(=O)c1cc(F)c(-c2nc3cc(C)cnc3n2C[C@H]2CN(C(=O)OC)CCO2)c(F)c1` [Compound 94, methyl (S)-2-((2-(2,6-difluoro-4-(methylcarbamoyl)phenyl)-6-methyl-3H-imidazo[4,5-b]pyridin-3-yl)methyl)morpholine-4-carboxylate], the negative logarithm of the IC50 (pIC50) was 6.70 to 7.30. In the case of `COC(=O)N1CCO[C@@H](Cc2c(-c3c(F)cc(N4CCN(C)CC4=O)cc3F)nc3cc(C)ccn23)C1` [Compound 45, methyl (S)-2-((2-(2,6-difluoro-4-(4-methyl-2-oxopiperazin-1-yl)phenyl)-7-methylimidazo[1,2-a]pyridin-3-yl)methyl) morpholine-4-carboxylate], the pIC50 under setting [1] is 5.30 to 6.70.

With `COC(=O)N1CCO[C@@H](Cc2c(-c3c(F)cc(-c4nc(C(C)(C)O)c[nH]4)cc3F)nc3cc(C)ccn23)C1` [Compound 115], the pIC50 under setting [1] is 5.30 to 6.70.

In the case of `COC(=O)c1cn(-c2cc(F)c(-c3nc4cc(C)ccn4c3C[C@H]3CN(C(=O)OC)CCO3)c(F)c2)cn1` [Compound 108], the negative logarithm of the IC50 (pIC50) under setting [1] was 5.30 to 6.70. With `COC(=O)N1CCO[C@@H](Cc2c(-c3c(F)cc(-c4ccc(C(=O)O)cn4)cc3F)nc3cc(C)ccn23)C1` [Compound 145], the negative-log IC50 (pIC50) is 6.70 to 7.30. Regarding `COC(=O)N1CCO[C@@H](Cc2c(-c3c(F)cc(-c4nc(C#N)c[nH]4)cc3F)nc3cc(C)ccn23)C1` [Compound 38, methyl (S)-2-((2-(2,6-difluoro-4-(4-cyano-1H-imidazol-2-yl)phenyl)-7-methylimidazo[1,2-a]pyridin-3-yl)methyl)morpholine-4-carboxylate], the negative-log IC50 (pIC50) is above 8.00. Consider `COC(=O)N1CCO[C@@H](Cc2c(-c3c(F)cc(-n4ccc(C5(C(=O)O)CC5)c4)cc3F)nc3cc(C)ccn23)C1` [Compound 136], for which the pIC50 is 6.70 to 7.30. As to `CNC(=O)c1cc(F)c(-c2nn3cc(C)ccc3c2C[C@H]2CN(C(=O)OC)CCO2)c(F)c1` [Compound 57], the negative logarithm of the IC50 (pIC50) was above 8.00. Same read-out and setting: the result for `COC(=O)N1CCO[C@@H](Cc2c(-c3c(F)cc(NC(=O)CC4(C(=O)O)CC4)cc3F)nc3cc(C)ccn23)C1` [Compound 95] reads 7.30 to 8.00; that for `COC(=O)N1CCO[C@@H](Cc2c(-c3c(F)cc(Nc4ccco4)cc3F)nc3cc(C)ccn23)C1` [Compound 74], 6.70 to 7.30. For the molecule `COC(=O)N1CCO[C@@H](Cc2c(-c3c(F)cc(-n4ccc(C5(C(=O)O)CC5)n4)cc3F)nc3cc(C)ccn23)C1` [Compound 130, (S)-1-(1-(3,5-difluoro-4-(3-((4-(carbomethoxy<methoxycarbonyl>)morpholin-2-yl)methyl)-7-methylimidazo[1,2-a]pyridin-2-yl)phenyl)-1H-pyrazol-3-yl)cyclopropane-1-carboxylic acid], under setting [1], the pIC50 was 5.30 to 6.70. `CNC(=O)c1cc(F)c(-c2nc3n(c2C[C@H]2CN(C(=O)OC)CCO2)CCN(C)C3)c(F)c1` [Compound 62]: under setting [1], the pIC50 is 5.30 to 6.70. As for `CCC(=O)N1CCO[C@@H](Cc2c(-c3c(F)cc(-c4nc(C#N)co4)cc3F)nc3cc(C)ccn23)C1` [Compound 121], the pIC50 under setting [1] was 5.30 to 6.70. For `COC(=O)N1CCO[C@@H](Cc2c(-c3c(F)cc(-c4nc(S(N)(=O)=O)c[nH]4)cc3F)nc3cc(C)ccn23)C1` [Compound 105], the pIC50 was above 8.00. Regarding `COC(=O)N1CCO[C@@H](Cc2c(-c3c(F)cc(-c4nc(C#N)c[nH]4)cc3F)nc3cc(F)ccn23)C1` [Compound 106], the negative-log IC50 (pIC50) is 7.30 to 8.00. `COC(=O)N1CCO[C@@H](Cc2c(-c3c(F)cc(-c4ncc(C#N)o4)cc3F)nc3cc(C)ccn23)C1` [Compound 120]: the pIC50 was above 8.00. As for `COC(=O)N1CCO[C@@H](Cc2c(-c3c(F)cc(-c4ccn(C(F)F)n4)cc3F)nc3cc(C)ccn23)C1` [Compound 102], the pIC50 is above 8.00. Turning to `CNC(=O)c1cc(F)c(-c2nc3cc(C)ccn3c2CN2CCNC(=O)C2)c(F)c1` [Compound 31], the pIC50 under setting [1] is 5.30 to 6.70. As to `CCC(=O)N1CCO[C@@H](Cc2c(-c3c(F)cc(NC(C)=O)cc3F)nc3cc(CF)ccn23)C1` [Compound 155], the negative-log IC50 (pIC50) is above 8.00. On to `COC(=O)N1CCO[C@@H](Cc2c(-c3c(F)cc(-n4cncn4)cc3F)nc3cc(C)ccn23)C1` [Compound 142, methyl (S)-2-((2-(2,6-difluoro-4-(1H-1,2,4-triazol-1-yl)phenyl)-7-methylimidazo[1,2-a]pyridin-3-yl)methyl)morpholine-4-carboxylate], for which the pIC50 was above 8.00. As for `Cc1ccn2c(Cc3cc(C#N)ccn3)c(-c3c(F)cc(S(N)(=O)=O)cc3F)nc2c1` [Compound 186], the negative logarithm of the IC50 (pIC50) is 7.19. `CNC(=O)c1cc(F)c(-c2nc3cc(C)ccn3c2CC(N)=O)c(F)c1` [Compound 19, 4-(3-(2-amino-2-oxoethyl)-7-methylimidazo[1,2-a]pyridine)-3,5-difluorobenzoylmethylamine]: under setting [1], the negative-log IC50 (pIC50) is 5.30 to 6.70.

Consider `CCC(=O)N1CCO[C@@H](Cc2c(-c3c(F)cc(NC(C)=O)cc3F)nc3cc(C(F)F)ccn23)C1` [Compound 157], for which the pIC50 was above 8.00. Regarding `COC(=O)N1CCO[C@@H](Cc2c(-c3c(F)cc(-c4cc[nH]n4)cc3F)nc3cc(F)ccn23)C1` [Compound 103], the pIC50 was 6.70 to 7.30. Regarding `C=CC(=O)Nc1cc(F)c(-c2nc3cc(C)ccn3c2C[C@H]2CN(C(=O)OC)CCO2)c(F)c1` [Compound 87], the pIC50 was 6.70 to 7.30.

For `COC(=O)N1CCO[C@@H](Cc2c(-c3c(F)cc(-n4cnc(OC)c4)cc3F)nc3cc(C)ccn23)C1` [Compound 112], the pIC50 under setting [1] was 5.30 to 6.70. For the molecule `COC(=O)N1CCO[C@@H](Cc2c(-c3c(F)cc(-c4ncco4)cc3F)nc3cc(CF)ccn23)C1` [Compound 123], the pIC50 is 6.70 to 7.30. On to `COC(=O)N1CCO[C@@H](Cc2c(-c3cc(F)c(S(N)(=O)=O)cc3Cl)nc3cc(C)ccn23)C1` [Compound 180, methyl (S)-2-((2-(2-chloro-5-fluoro-4-sulfamoylphenyl)-7-methylimidazo[1,2-a]pyridin-3-yl)methyl)morpholine-4-carboxylate], for which the negative-log IC50 (pIC50) was 9.70. As to `COC(=O)N1CCO[C@@H](Cc2c(-c3c(F)cc(-n4cnc(C(=O)O)c4)cc3F)nc3cc(C)ccn23)C1` [Compound 107, (S)-1-(3,5-difluoro-4-(3-((4-(carbomethoxy<methoxycarbonyl>)morpholin-2-yl)methyl)-7-methylimidazo[1,2-a]pyridin-2-yl)phenyl)-1H-imidazole-4-carboxylic acid], under setting [1], the pIC50 is 7.30 to 8.00.
